This is an account of results in patent publication US20230000806A1, “COMPOSITIONS AND METHODS FOR GLUTATHIONE ENHANCEMENT FOR USE IN BRAIN HEALTH” (SOCIETE DES PRODUITS NESTLE S.A., priority 2019, published 2023).

In test [1] the test system is rats. Kind of test: GSH levels in the nucleus accumbens of treated rats. In kind it is in vivo, rat.
For test [2], the system named is rats. Nature of the test: Operant conditioning, progressive ratio reinforcement schedule (motivated behaviour). In kind it is in vivo, rat. Particulars: vs vehicle. The procedure:
Adult male outbred rats were trained for nose poke for saccharine food pellets for one week on an FR1 training schedule as described in the methods below. Rats were then treated with either normal drinking water (vehicle) or N-acetyl cysteine (NAC) in the drinking water (FIG. 22A) at a dose that was previously shown to enhance GSH levels (FIG. 22B). Following 2 weeks of treatment, rats were given an additional 2 training sessions, followed 24 h later by a progressive ratio session designed to test their motivated behaviour. During this progressive ratio session, rats have to increasingly work harder to earn the saccharine pellet, as described in the methods below. […] The breakpoint is defined as the last step in the session where the animals received a reward and is a direct correlate of their willingness to exert an effort. […] Animals: Adult male Wistar rats (Charles Rivers, Saint-German-Nuelle, France) weighing 250-275 gr at the beginning of the experiment were used for all experiments. Rats were individually housed in cages in housing colonies on a 12:12 h reversed light:dark cycle with lights on at 20:00, and lights-off at 8:00. Food and water were available ad libitum. Following a week of acclimatization to the animal facilities, rats were handled for 2 min per day for three days prior to the start of the experiments, in order to habituate to the experimenters. Operant conditioning: Ten days after introduction to the reversed day-night cycle, rats started training in a fixed ratio 1 reinforcement schedule (FR1). Operant chambers (Coulbourn Instruments, Holliston, Mass., US), placed in sound attenuating cubicles, were equipped with a grid, underneath which a tray with standard bedding material was placed for collection of feces and urine after each training session. Each chamber had one food tray and two ports placed on either side of the tray. A cue light was placed in each port and the food tray, whereas a house light was placed above the food tray. The right-hand side port of each chamber was designated as “active”, meaning that spontaneous nosepoking would result in the drop of one 45 mg food pellet (Bio-Serv, Flemington, N.J., USA) to the food tray. Upon nosepoking in the active port, the cue and house lights were turned off, while the tray light turned on and the pellet dropped to the food tray. […] Subsequently, the chamber returned to its initial condition. Each training session lasted maximally two hours or until a rat acquired 100 pellets. Each rat received six training sessions (one training on each day for five consecutive days, followed by two days without training and one training session on day 8). Only rats that finished at least two training sessions acquiring 100 pellets before the two-hour mark were used for progressive ratio experiments. Subsequently, rats were treated with N-acetyl cysteine in the drinking water (500 mg/L) or continued having access to normal water (control). After two weeks of treatment, rats were exposed to another two days of FR1 training to ensure their training performance was similar to pre-treatment levels. To test motivated behaviour, rats were exposed to a progressive ratio reinforcement schedule (progressive ratio test). Progressive ratio sessions were identical to training sessions except that the operant requirement in each trial (T) was the integer (rounded down) of the function 1.4^(T-1) starting at one nosepoke for the first three trials and increasing in subsequent trials for rats (Wanat et al. Nat Neurosci. 2013; 16(4):383-5). Progressive ratio sessions lasted two hours. Correct nosepokes (i.e. nosepokes in the active port and outside the timeout period, thus resulting in food delivery) were calculated to evaluate behavioural performance, as well as the number of acquired rewards and the last completed ratio (breakpoint). Investigation of the Nucleus accumbens was undertaken in cannulated rats which were then moved to a reverse light-dark cycle to recover for 10 days. […]

In test [3] the test system is rat primary astrocytes. Kind of test: Cytoplasmic reactive oxygen species (ROS) measurement with CellROX Deep Red. In kind it is cell-based. Particulars: 48 hrs after treatment; oxidative stress triggered by 250 μM tBHP for 1 hour; vs control. How it is done: Cytoplasmic ROS was measured in rat primary astrocytes in culture by CellROX® Deep Red reagent, a novel cell-permeant dye with absorption/emission maxima of ˜644/665 nm. CellROX® Deep Red reagent while in a reduced state is non-fluorescent and becomes fluorescent upon oxidation by reactive oxygen species with emission maxima ˜665. CellMask™-green stains plasma membrane and DAPI stains nuclei. We used the green channel and the dapi to segment the image in cytoplasmic and nuclear areas and measure the CellROX deep red signal in these areas. As CellROX® Deep Red is a better read out for cytoplasmic ROS, we measure the average intensity in the cytoplasm and normalized to the average cytoplasmic area. Cell count using DAPI was performed to establish toxicity or cell detachment for each condition. Images were taken to cover all the area of the well where cells were seeded and at least 4 technical replicates were done for each condition and for each biological replicate. Measurements were performed at 48 hrs after treatment at baseline and after oxidative stress where oxidative stress was triggered by 250 μM tBHP for 1 hour. Results were compared to the control condition at baseline for each biological replicate and for each condition.

A further test has as its system Nrf2. Kind of test: Measurement of nuclear Nrf2 in astrocytes (immunostaining). It is filed as cell-based, rat. The settings on record: 48 hrs after treatment; for increase Nrf2 levels in the cell nucleus: significant; for Nrf2 activation: vs control (water or 0.1% DSMO). The procedure:
Nuclear Nrf2 was measured in rat primary astrocytes in culture. The cells were stained with Nrf2 (Abcam ab89443 1:500), Tubulin (Abcam ab 89984 1:1000) antibodies and DAPI as nuclear counterstaining. We used the tubulin channel and the DAPI to segment the image in cytoplasmic and nuclear areas and measure the Nrf2 signal in these areas. We measure the average intensity in the nucleus and normalized to the average nuclear area. Cell count using DAPI was performed to establish toxicity or cell detachment for each condition. Images were taken to cover all the area of the well where cells were seeded and at least 6 technical replicates were done for each condition and for each biological replicate. Measurements were performed 48 hrs after treatment with each of the compounds: N-Acetylcysteine dissolved in water, while Puerarine, Sulfurophane, Taurine at different doses were dissolve in a 0.1% DSMO final solution. They were compared to the control in each condition which was water or 0.1% DSMO alone. Results were compared to the control condition for each biological replicate and for each condition. Statistics were done using Kruskal-Wallis Multiple Comparison test.

Test [4] concerns rat primary astrocytes. Nature of the test: Intracellular GSH by GSH-Glo Assay in rat primary astrocyte culture. In kind it is cell-based. The settings on record: standard culture conditions (no cysteine depletion); 48 hrs after treatment; normalized to total proteins. The procedure:
Intracellular GSH was measured in rat primary astrocytes in culture by using a GSH-Glo™ Assay, which is a luminescent-based assay for the detection and quantification of reduced and/or total glutathione levels in cells. The assay converted luciferin derivatives into luciferin in the presence of GSH. The reaction was catalyzed by a glutathione S-transferase (GST) enzyme supplied in the kit. The luciferin formed was detected in a coupled reaction using Ultra-Glo™ Recombinant Luciferase that generated a glow type luminescence that was proportional to the amount of glutathione present in cells. A standard curve was used for each biological replicate and at least 4 technical replicates were done for each condition and for each biological replicate. 10% of lysate of each technical and biological replicate was used to measure protein amount by BCA and used to normalize the GSH intracellular content to total proteins. Buthionine sulfoximine (BSO) a specific inhibitor of γ-glutamylcysteine ligase (GCL) was added at 15 mM at the time of the start of the treatment to confirm the specificity of the readout. Measurements were performed 48 hrs after treatment. Results were compared to the control condition for each biological replicate and for each condition.

The test system of test [5] is rat primary astrocytes. Nature of the test: Intracellular GSH in astrocytes in medium reduced in cysteine and methionine. In kind it is cell-based. Particulars: medium depleted of methionine and cystine, supplemented with 15% FBS.
Procedure: Intracellular GSH was measured in rat primary astrocytes in culture by using a GSH-Glo™ Assay, which is a luminescent-based assay for the detection and quantification of reduced and/or total glutathione levels in cells. The assay converted luciferin derivatives into luciferin in the presence of GSH. The reaction was catalyzed by a glutathione S-transferase (GST) enzyme supplied in the kit. The luciferin formed was detected in a coupled reaction using Ultra-Glo™ Recombinant Luciferase that generated a glow type luminescence that was proportional to the amount of glutathione present in cells. A standard curve was used for each biological replicate and at least 4 technical replicates were done for each condition and for each biological replicate. 10% of lysate of each technical and biological replicate was used to measure protein amount by BCA and used to normalize the GSH intracellular content to total proteins. […] Measurements were performed 48 hrs after treatment. […] To measure GSH increase after N-acetyl cysteine (Nac) and L-cysteine supplementation, rat primary astrocytes were cultured in medium depleted of methionine (a precursor of cysteine) and cystine but still supplemented with 15% FBS to not have a full depletion but rather a reduction of these amino acids. Experiments were performed only with the same batch of FBS to avoid any difference in amino-acid content amongst batches. […]
Where [6] appears, read: single infusion in the Nucleus Accumbens, 1 μl of 7 μg/μl, 24 hours before.
[7] abbreviates: NAC in the drinking water (500 mg/L), 2 weeks.

Take `CCCCS(=N)(=O)CCC(N)C(=O)O` (stereo not drawn) [BSO, Buthionine sulfoximine]: in the test on rats [1] (single infusion in the Nucleus Accumbens, 1 μl of 7 μg/μl, 24 hours before the test, vs vehicle), the “reduction of GSH levels in the Nucleus Accumbens” value was 29%. Moreover, in the test with rats [2] (setting [6]), the “change in breakpoint (PR-schedule)” value is −68%, the “change in correct nosepokes (PR-schedule)” value was −60% and the “change in rewards (PR-schedule)” value is recorded as −22%.

On to `C[N+](C)(C)C(Cc1c[nH]c(S)n1)C(=O)O.[OH-]` (stereo not drawn) [Ergothioneine, 1-carboxy-2-[2-mercaptoimidazole-4-(or 5)-yl]ethyl]-trimethyl-ammonium hydroxide], for which the “reactive oxygen species after oxidative stress” value (“reactive oxygen species” below) with rat primary astrocytes [3] is given as “decreases reactive oxygen species”. In addition, the “increase Nrf2 levels in the cell nucleus” value in the test on Nrf2 (0.5 mM) is reported as not above 18%. Further, in the test with rat primary astrocytes [4], the intracellular glutathione entry is “increases intracellular glutathione”.

For `N[C@@H](CS)C(=O)O` [L-cysteine], the GSH intracellular level result with rat primary astrocytes [5] is on record as “significantly increase the GSH intracellular level”.

Regarding `CCNC(=O)CC[C@H](N)C(=O)O` [L-theanine], the “reactive oxygen species” value in the test with rat primary astrocytes [3] is listed as “decreases reactive oxygen species”. For the same molecule, the intracellular glutathione result in the test with rat primary astrocytes [4] is given as “increases intracellular glutathione”.

On to `CC(=O)N[C@@H](CS)C(=O)O` [N-Acetylcysteine, reference compound], for which, in the test on rat primary astrocytes [3], the “reactive oxygen species” value is on record as “decreases reactive oxygen species”. Besides, the Nrf2 activation entry in the test with Nrf2 is on record as “does not activate Nrf2”. Further, the intracellular glutathione entry in the test on rat primary astrocytes [4] is listed as “does not increase intracellular glutathione”. Moreover, in the test with rat primary astrocytes [5], the GSH intracellular level result is “significantly increase the GSH intracellular level”. Moreover, the “GSH in the nucleus accumbens” value in the test on rats [1] (NAC in the drinking water (500 mg/L), 2 weeks, vs vehicle treated rats) is “enhanced GSH in the nucleus accumbens”. Moreover, in the test with rats [2] (setting [7]), the “breakpoint level in progressive ratio session” value is listed as “significantly higher breakpoint level”, the “nose pokes in progressive ratio session” value was “significantly more nose pokes” and the “number of rewards in progressive ratio session” value is recorded as “greater number of rewards”.

In the case of `O=c1c(-c2ccc(O)cc2)coc2c([C@@H]3O[C@H](CO)[C@@H](O)[C@H](O)[C@H]3O)c(O)ccc12` [Puerarine], the “reactive oxygen species” value in the test on rat primary astrocytes [3] was “decreases reactive oxygen species after oxidative stress in a dose dependent manner”. The “increase Nrf2 levels in the cell nucleus” value with Nrf2 (highest dose of 10 μm) is not above 20%. Further, the intracellular glutathione result in the test on rat primary astrocytes [4] is listed as “increases intracellular glutathione”.

On to `C[S+]([O-])CCCCN=C=S` (stereo not drawn) [Sulfurophane], for which the “reactive oxygen species” value in the test on rat primary astrocytes [3] is given as “decreases reactive oxygen species”. Moreover, the “increase Nrf2 levels in the cell nucleus” value with Nrf2 (2 μM) is reported as not above 20%. In the test with rat primary astrocytes [4], the intracellular glutathione entry is reported as “increases intracellular glutathione”.

As to `NCCS(=O)(=O)O` [Taurine, 2-aminoethanesulfonic acid], the “reactive oxygen species” value in the test with rat primary astrocytes [3] is reported as “decreases reactive oxygen species”. In addition, the Nrf2 activation result with Nrf2 is recorded as “does not activate Nrf2”. Moreover, the intracellular glutathione result in the test on rat primary astrocytes [4] is recorded as “increases intracellular glutathione”.
